Laboratory results from ChEMBL document CHEMBL1201862, “PubChem BioAssay data set” (2004).
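1) Cells in 96-well plates. 2) Compound, 48 h, 5 concentrations. 3) Linear interpolation between surrounding doses. 4) Unreached endpoint = highest concentration. Here, GI50 denotes the concentration required for 50% inhibition of growth.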 The source made the active and inactive calls. Rule as the data show it: active = GI50 up to about 1.1 µM and inactive = higher.

Key:
Assay in all cases: NCI anticancer screen, dose series, 48 h
[1] = system: SF-268
[2] = system: TK-10
[3] = system: COLO 205
[4] = system: HCT-15
[5] = system: SN12C
[6] = system: T47D
[7] = system: SW-620
[8] = system: 786-0
[9] = system: UACC-257
[10] = system: NCI-H23
[11] = system: SK-MEL-2
[12] = system: SF-295
[13] = system: HOP-62
[14] = system: Hs-578T
[15] = system: SK-MEL-5
[16] = system: UACC-62
[17] = system: PC-3
[18] = system: HOP-92
[19] = system: BT-549

| Structure (SMILES) | GI50 [1] | GI50 [2] | GI50 [3] | GI50 [4] [µM] | GI50 [5] | GI50 [6] | GI50 [7] | GI50 [8] | GI50 [9] | GI50 [10] | GI50 [11] | GI50 [12] | GI50 [13] | GI50 [14] | GI50 [15] | GI50 [16] | GI50 [17] | GI50 [18] | GI50 [19] |
| --- | --- | --- | --- | --- | --- | --- | --- | --- | --- | --- | --- | --- | --- | --- | --- | --- | --- | --- | --- |
| COc1ccc(C[C@H]2NC(=O)/C=C/C[C@@H]([C@H](C)[C@H]3O[C@@H]3c3ccccc3)OC(=O)[C@H](CC(C)C)OC(=O)[C@H](C)CNC2=O)cc1 | 7.13e-05 µM (active) | > 0.0001 µM (active) | 1.99e-05 µM (active) | 4.28e-05 | 3.94e-05 µM (active) | > 0.0001 µM (active) | 1.4e-05 µM (active) | 1.25e-05 µM (active) | > 5.89e-05 µM (active) | 2.54e-05 µM (active) | > 4.42e-05 µM (active) | 1.07e-05 µM (active) | 2.47e-05 µM (active) | 1.01e-05 µM (active) | 7.53e-06 µM (active) | 6.71e-06 µM (active) | 2.09e-05 µM (active) |  |  |
| CC1(C)CC(C)(C)C1=NNC(N)=O | > 100 µM (inactive) | > 100 µM (inactive) | > 100 µM (inactive) | > 100 | > 100 µM (inactive) | > 100 µM (inactive) | > 100 µM (inactive) | > 100 µM (inactive) | > 100 µM (inactive) | > 100 µM (inactive) | > 100 µM (inactive) | > 100 µM (inactive) | > 100 µM (inactive) | > 100 µM (inactive) | > 100 µM (inactive) | > 100 µM (inactive) | > 100 µM (inactive) | > 100 µM (inactive) |  |
| Cc1ccc(-c2c(C#N)c(-c3ccc(Cl)cc3)c(C#N)c(=O)n2NS(=O)(=O)c2ccc(C)cc2)cc1 | 26.3 µM (inactive) | 56.1 µM (inactive) | 42.1 µM (inactive) | 28.2 | 39.4 µM (inactive) |  | 35.8 µM (inactive) | 42.4 µM (inactive) | 74 µM (inactive) |  | 14 µM (inactive) | 24 µM (inactive) | 19.5 µM (inactive) |  | 23.1 µM (inactive) | 18 µM (inactive) | 17.4 µM (inactive) | 19.5 µM (inactive) | 23.5 µM (inactive) |
| O=[N+]([O-])/C(C(Cl)=C(Cl)Cl)=C(/Cl)SCc1ccccc1 | 12.4 µM (inactive) | 5.86 µM (inactive) | 1.74 µM (inactive) | 5 | 3.61 µM (inactive) | 14.6 µM (inactive) | 2.18 µM (inactive) | 1.65 µM (inactive) | 3.39 µM (inactive) | 6.03 µM (inactive) | 22.1 µM (inactive) | 34.4 µM (inactive) | 15.2 µM (inactive) | 4.48 µM (inactive) | 8.43 µM (inactive) | 3.94 µM (inactive) | 16 µM (inactive) | 4.33 µM (inactive) |  |
| N#Cc1c(N2CCOCC2)ncn(-c2ccccc2)c1=O |  |  | > 100 µM (inactive) | > 100 | > 100 µM (inactive) | > 100 µM (inactive) | > 100 µM (inactive) | > 100 µM (inactive) | > 100 µM (inactive) | > 100 µM (inactive) | > 100 µM (inactive) | > 100 µM (inactive) | > 100 µM (inactive) |  | > 100 µM (inactive) | > 100 µM (inactive) | > 100 µM (inactive) | > 100 µM (inactive) | > 100 µM (inactive) |
| CC1(C)CC(=O)c2c(nc3ccc4ccccc4c3c2-c2ccc(NC(=O)CCC(=O)Nc3ccc(-c4c5c(nc6ccc7ccccc7c46)CC(C)(C)CC5=O)cc3)cc2)C1 | > 100 µM (inactive) | > 100 µM (inactive) | > 100 µM (inactive) |  | > 100 µM (inactive) | > 100 µM (inactive) | > 100 µM (inactive) | > 100 µM (inactive) | > 100 µM (inactive) |  | > 100 µM (inactive) | > 100 µM (inactive) | > 100 µM (inactive) | > 100 µM (inactive) | > 100 µM (inactive) |  | > 100 µM (inactive) |  |  |
| COc1ccc(/C=[N+](\[O-])[C@H](COCc2ccccc2)c2ccccc2)cc1 | 67.5 µM (inactive) | > 100 µM (inactive) | 84.3 µM (inactive) |  |  |  | 92 µM (inactive) | > 100 µM (inactive) | > 100 µM (inactive) | > 100 µM (inactive) | 30.3 µM (inactive) | 66.8 µM (inactive) | > 100 µM (inactive) |  |  |  |  | 23.9 µM (inactive) |  |
| COc1ccc2oc(-c3cc4cc(OC)ccc4o3)cc2c1 | > 100 µM (inactive) | > 100 µM (inactive) | > 100 µM (inactive) | > 100 | > 100 µM (inactive) |  | > 100 µM (inactive) | > 100 µM (inactive) | > 100 µM (inactive) | > 100 µM (inactive) | > 100 µM (inactive) | > 100 µM (inactive) | > 100 µM (inactive) |  | > 100 µM (inactive) | > 100 µM (inactive) |  | > 100 µM (inactive) |  |
| COc1ccc(/N=N/c2c(-c3c(OC)cc4occc4c3OC)[nH]c(=O)c(C#N)c2C)cc1 | > 100 µM (inactive) | > 100 µM (inactive) | > 100 µM (inactive) | > 100 | > 100 µM (inactive) | > 100 µM (inactive) | > 100 µM (inactive) | > 100 µM (inactive) | > 100 µM (inactive) | > 100 µM (inactive) | > 100 µM (inactive) | > 100 µM (inactive) | > 100 µM (inactive) | > 100 µM (inactive) | > 100 µM (inactive) | > 100 µM (inactive) | > 100 µM (inactive) | > 100 µM (inactive) |  |
| COc1cccc2c(Nc3ccc(S(=O)(=O)N=C(N)N)cc3)c3ccc([N+](=O)[O-])cc3nc12 | 5.62 µM (inactive) | 25.6 µM (inactive) | 18.8 µM (inactive) | 30 | 30 µM (inactive) | 1.35 µM (inactive) | 16.7 µM (inactive) | 11.5 µM (inactive) | 17.4 µM (inactive) | 14.7 µM (inactive) | 14.3 µM (inactive) | 29.4 µM (inactive) | 15.7 µM (inactive) |  | 11.6 µM (inactive) | 5.98 µM (inactive) | 18.7 µM (inactive) | 12.3 µM (inactive) | 13.6 µM (inactive) |
| c1cc(-c2ccc(-c3ccsc3)s2)cs1 | > 100 µM (inactive) | 76.4 µM (inactive) | > 100 µM (inactive) | > 100 | > 100 µM (inactive) | > 100 µM (inactive) | 44.3 µM (inactive) | 36.1 µM (inactive) | > 100 µM (inactive) | 16.2 µM (inactive) |  | 54 µM (inactive) | 39.6 µM (inactive) | 40.5 µM (inactive) | > 100 µM (inactive) | 54.2 µM (inactive) |  | > 100 µM (inactive) |  |
| Cc1ccc(C(=O)c2[nH]c(Nc3ccc(Cl)cc3)c(C(=S)Nc3ccccc3)c2N)cc1 | 5.78 µM (inactive) | 5.36 µM (inactive) | 1.45 µM (inactive) | 10.7 | 13.1 µM (inactive) | 15.5 µM (inactive) | 11.5 µM (inactive) | 2.74 µM (inactive) | 18.7 µM (inactive) | 3.14 µM (inactive) | 14.5 µM (inactive) | 2.13 µM (inactive) | 4.41 µM (inactive) |  |  | 14.4 µM (inactive) | 6.84 µM (inactive) | 12.9 µM (inactive) | 8.04 µM (inactive) |
